Test results published in patent US8541365B2, “Dendrimeric compounds comprising amino acids, hyperbranched core compound, process for preparation of dendrimeric compounds comprising amino acids and hyperbranched core compound, and use thereof” (Instytut Chemii Organicznej, Polska Akademia Nauk, priority 2008, dated 2013).
Like-named read-outs stand apart in the source and are kept apart here.

Key:
[1] = system: C. albicans ATCC 10231
Procedure: Values of a minimal inhibitory concentration—MIC of compounds according to the invention for bacterial strains were assayed by a standard method of microdilutions on a liquid substrate (Clinical and Laboratory Standards Institute 2007. Methods for Dilution Antimicrobial Susceptibility Tests for Bacteria That Grow Aerobically. Approved Standard—Seventh Edition. M7-A7. Clinical and Laboratory Standards Institute, Wayne, Pa., USA).
A series of double dilutions of the tested compounds in DMSO was prepared. They were then diluted 95× in CAMHB (Cation Adjusted Mueller—Hinton Broth).
Bacteria were cultured for 24 h at 35° C. under aerobic conditions on a solid TSA (Triptic Soy Agar) medium. A volume of a proper test was 0.1 ml and was composed of: 0.005 ml of a saline suspension of bacteria at a density of 10^7 CFU/ml (final bacteria amount of 5×10^5/ml) and 0.095 ml of a tested compound CAMHB solution. Final concentrations of compounds in the proper test were (μg/ml): 128, 64, 32, 16, 8, 4, 2, 1.
e) C. albicans ATCC 10231.

[2] = system: S. aureus ATTC 43300; assay type: cell-based, Staphylococus aureus subsp. aureus; details: S. aureus ATTC 43300; microdilution in CAMHB, 18 h at 33° C.
Procedure: (§1) Titration plates with a, b, d strains were incubated for 18 h at 35° C. under aerobic conditions, and the c strain was incubated for 18 h at 33° C. under aerobic conditions.
c) Staphylococus aureus subsp. aureus ATCC 43300,

[3] = system: S. aureus ATCC 25923; assay type: cell-based, Staphylococus aureus subsp. aureus; details: S. aureus ATCC 25923; microdilution in CAMHB, 18 h at 35° C.
Procedure: as §1
b) Staphylococus aureus subsp. aureus ATCC 25923,

[4] = system: human melanoma cells (MEW 155); details: MEW 155 cells, 3 days culture
Procedure: Human melanoma cells (MEW 155) received from Institute of Oncology were inoculated on Petri dishes (Ø3 cm, Nunc) to the number of about 75 000, suspended in 3 ml of Eagle medium+10% FBS+antibiotics. Immediately after the inoculation, solutions of tested substances were added to the cells (a substance +20 ml PBS) at 0.5 ml per dish. After culturing for 3 days, numbers of cells (all, dead and alive) at each dish were determined with NucleoCounter apparatus (Chemometec).

[5] = system: P. aeruginosa ATTC 27853; assay type: cell-based, Pseudomonas aeruginosa; details: P. aeruginosa ATTC 27853; microdilution in CAMHB, 18 h at 35° C.
Procedure: as §1
a) Pseudomonas aeruginosa ATCC 27853,

[6] = system: E. coli ATTC 25922; assay type: cell-based, Escherichia coli; details: E. coli ATTC 25922; microdilution in CAMHB, 18 h at 35° C.
Procedure: as §1
d) Escherichia coli ATCC 25922

Compound	Minimal inhibitory concentration (MIC) [1]	Minimal inhibitory concentration (MIC) [2]	Minimal inhibitory concentration (MIC) [3]	Live cells (%) ([4]; concentration 10.0 μMol dm^−3)	Minimal inhibitory concentration (MIC) [5]	Minimal inhibitory concentration (MIC) [6]	Live cells (%) ([4]; concentration 25.7 μMol dm^−3)
NC[C@H](NC(=O)OCc1ccccc1)C(=O)NCCNC(=O)CCN(CCCC[C@@H](C(=O)NCCc1c[nH]c2ccccc12)N(CCC(=O)NCCNC(=O)[C@H](CN)NC(=O)OCc1ccccc1)CCC(=O)NCCNC(=O)[C@H](CN)NC(=O)OCc1ccccc1)CCC(=O)NCCNC(=O)[C@H](CN)NC(=O)OCc1ccccc1 [Compound 105]	81 μM/L	81 μM/L	38 μM/L	97.7%	81 μM/L	81 μM/L	–
CCCCCCCCCCCCNC(=O)[C@H](CCCN(CCC(=O)NCCNC(=O)[C@H](CCCCN)NC(=O)OCc1ccccc1Cl)CCC(=O)NCCNC(=O)[C@H](CCCCN)NC(=O)OCc1ccccc1Cl)N(CCC(=O)NCCNC(=O)[C@H](CCCCN)NC(=O)OCc1ccccc1Cl)CCC(=O)NCCNC(=O)[C@H](CCCCN)NC(=O)OCc1ccccc1Cl [Compound 109]	69 μM/L	–	–	–	–	–	1.5%
